Reference: patent US12497614B2, “Compositions and methods for editing beta-globin for treatment of hemaglobinopathies” (Vertex Pharmaceuticals Incorporated, priority 2020, dated 2025)

Experiments:
[1] = system: HBB gene locus in CD34+ HSPCs; test: HDR efficiency with DNA-PK inhibitors for editing the HBB gene in CD34+ HSPCs; NGS (Example 4); assay type: cell-based, human
Description: The cells were transduced with AAV donor template for 1 hour at 37° C. prior to electroporation. AAV-encoded homology donor template referred to as “AAV.310”, which is identified by sequence in Table 8. The AAV.310 donor template encodes a SCD mutation, specifically valine at the 6th codon downstream the HBB start codon (E6V). The cells were treated with AAV at a dose of 10,000 MOI.
Edited cells were evaluated for viability using trypan blue, and for incorporation of gene-edits at 2 days post-electroporation. The efficiency of HDR repair for introducing an E6V mutation in the HBB gene was quantified by NGS assay as described in Example 1, and the frequency of INDELs induced at the T107 cut site was also evaluated by NGS analysis.
The INDELs species identified in edited cells were further evaluated to determine frequency of repair by NHEJ or MMEJ repair pathways. An INDEL of ±1 nt was considered due to NHEJ repair; a deletion of −9 nt was considered due to MMEJ repair based on the microhomology present on either side of the T107 cut site. Based on percentage of total reads corresponding to these INDEL species, the ratio of gene edits due to NHEJ and MMEJ repair was evaluated. […] Thus, reduced frequency of INDELs with treatment of compound 296 or i53 is largely due to suppression of the NHEJ repair pathway.

HBB gene in CD34+ HSPCs = test: In vitro editing with T107 RNP, AAV.310 or AAV.320 and inhibitors before transplantation; NGS and cell growth (Example 6); details: for change in cell growth if cells were edited with the inhibitor: T107 RNP+AAV.310 or AAV.320, data not shown; for frequency of HDR relative to editing with T107 RNP and AAV only / frequency of INDELs relative to editing with T107 RNP and AAV only: i53 1 μg mRNA, Compound 984 1 μM or 3 μM
Description: Briefly, frozen CD34+ HSPCs isolated from plerixafor-mobilized peripheral blood obtained from two healthy human donors were thawed and seeded in media with components as described in Example 1. The cells were maintained in culture, and gene-editing was performed following two days of culture. For editing, 5×10^5 CD34+ HSPCs were electroporated with RNP containing 20 μg SpCas9 and 20 μg T107 sgRNA. Electroporation was performed using the CA-137 program of the Lonza Amaxa™ 4D-Nucleofector™. The cells were transduced with AAV.310 or AAV.320 for 1 hour at 37° C. prior to electroporation at a dose of 10,000 MOI. The cells were electroporated and immediately plated in medium containing Compound 984 at 1 μM or 3 μM.
Cells were maintained in culture for two days following electroporation. Fold change in cell-growth between day 0 and day 2 post-electroporation was quantified.
Additionally, gene-edits in HBB were evaluated in CD34+ HSPCs following two days of in vitro culture.

CD34+ HSPCs [2] = test: Globin and hemoglobin analysis by HPLC on day 18 of differentiation (Example 5); assay type: cell-based, human; details: T107 RNP+AAV.310 alone or combined with the inhibitor
Description: (§1) Following editing, cells were differentiated to erythrocytes.
Additionally, on day 18 post-editing, expression of globin monomers was assessed in differentiated cells by HPLC as described in Example 3. […] Accordingly, the editing was sufficient to both introduce the SCD mutation in HBB and result in expression of sickle globin.
Furthermore, production of hemoglobin tetramers was also evaluated by HPLC. The analysis included quantification of HbS tetramer containing sickle-globin (α2β(E6V)2), HbF tetramer (α2γ2), HbA (α2β2), and HbA2 (α2δ2) produced by edited cells. […] Thus, the editing was also sufficient to alter hemoglobin output following in vitro differentiation.

NBSGW mice = test: In vivo engraftment and persistence of gene-edits of CD34+ HSPCs edited with T107 RNP, AAV and inhibitors (Example 6); design: species or system mouse; details: 16 weeks, with or without inhibitor
Description: Following two days of in vitro culture, HSPCs were administered by intravenous injection to NBSGW mice at a dose of 0.5×10^6 cells per mouse. Recipient mice were treated with sublethal irradiation (100 cGy) at 1 day prior to administration of HSPCs.
Blood and bone marrow were extracted at 16 weeks following HSPC administration and were evaluated for presence of human hematopoietic cells using flow cytometry as described in Example 2. Additionally, the lineage of human CD45+ cells was determined using markers for human B cells, T cells, myeloid cells, and HSPCs as described in Example 2.
The long term persistence of gene-edited (in HBB gene) HSPCs was evaluated in genomic DNA extracted from mouse bone marrow collected at 16 weeks. The frequency of donor template-encoded gene-edits incorporated in HBB by HDR and the frequency of INDELs at the T107 cut site were quantified by NGS, and are shown in FIG. 7I and FIG. 7J respectively.

CD34+ HSPCs [3] = test: Erythrocyte functionality: enucleation and cell-surface markers by flow cytometry (Example 5); assay type: cell-based, human; details: T107 RNP+AAV.310 alone or combined with the inhibitor
Description: as §1
The ability of edited cells to differentiate to functional erythrocytes was assessed by determining expression of erythrocyte-associated cell surface markers and enucleation using flow cytometry on day 12 and 18 post editing. Briefly, 4×10^5 cells were obtained, and half were stained for erythrocyte cell-surface markers and half were used for detection of enucleation. For staining cell-surface markers, the cells were incubated in PBS containing 1% human serum albumin (PBS-A) and an antibody cocktail of anti-CD233(BRIC6-Band3)-FITC, anti-CD71-PE, anti-CD235a(GlyA)-PE/Cy7, and anti-CD49d (α4)-VioBlue. For detection of enucleation, 2 drops of NucRed nuclear staining reagent was added to 1 mL PBS-A, and 100 μL was added to plated cells. Following incubation, both cell samples were labeled with Sytox Blue solution (1:1000 dilution in PBS-A) for live/dead analysis. Samples were then assessed by flow cytometry

[4] = T107 RNP + AAV.310 + 0.012 μM compound, 48 hours
[5] = T107 RNP + AAV.310 + 0.037 μM compound, 48 hours
[6] = T107 RNP + AAV.310 + 0.04 μM compound, 48 hours
[7] = T107 RNP + AAV.310 + 3.3 μM compound, 48 hours
[8] = T107 RNP + AAV.310 + 10 μM compound, 48 hours
[9] = T107 RNP + AAV.310 + i53 (1 μg mRNA)

## [2H]c1nc(C)nc([2H])c1-c1cc(NC[C@@H](C)c2cccc3c(C(=O)NC)ccnc23)ncn1 [Compound 984]
[1]; [4]
  % HDR: 44%
  % INDELs: 39%
[1]; [5]
  % HDR: 51%
  % INDELs: 36%
[1]; [6]
  % HDR: 42%
  % INDELs: 40%
[1]; [7]
  % HDR: 49%
  % INDELs: 30%
[1]; [8]
  % HDR: 48%
  % INDELs: 33%
[1]; T107 RNP+AAV.310 with DNA-PK inhibitor
  reduction of the frequency of INDELs at the T107 cut site compared to control cells: approximately 1.6 fold
HBB gene in CD34+ HSPCs
  change in cell growth if cells were edited with the inhibitor: no substantial change
  frequency of HDR relative to editing with T107 RNP and AAV only: increased
  frequency of INDELs relative to editing with T107 RNP and AAV only: decreased
CD34+ HSPCs [2]
  HbA production compared to control cells: decreased
  HbS production compared to control cells: increased
  expression of sickle-globin compared to control cells: increased
NBSGW mice
  percent chimerism in mouse bone marrow and blood: comparable
CD34+ HSPCs [3]
  levels of enucleation vs control cells: comparable

## i53: polypeptide inhibitor of 53BP1 (SEQ ID NO: 11), introduced as an mRNA-encoded protein (ORF SEQ ID NO: 10)
[1]; [9]
  % HDR: 35%
  % INDELs: 42%
[1]; T107 RNP+AAV.310, Compound 296 at 10 μM, i53 at 1 μg mRNA
  INDEL species due to MMEJ repair (deletion of −9 nt): did not affect
HBB gene in CD34+ HSPCs
  change in cell growth if cells were edited with the inhibitor: no substantial change
  frequency of HDR relative to editing with T107 RNP and AAV only: increased
  frequency of INDELs relative to editing with T107 RNP and AAV only: decreased
CD34+ HSPCs [2]
  HbA production compared to control cells: decreased
  HbS production compared to control cells: increased
  expression of sickle-globin compared to control cells: increased
NBSGW mice
  percent chimerism in mouse bone marrow and blood: comparable
CD34+ HSPCs [3]
  levels of enucleation vs control cells: comparable
